By IC50 is commonly meant the concentration needed to halve the response being measured. Broadly, the EC50 is the concentration at which the effect is half-maximal. A word on the AC50: it is the concentration giving half of the maximal activity seen. Broadly, the IC90 is the point of the concentration-response curve where the effect stands at 90%. As a reminder, the CC50 is the concentration that lowers cell viability or growth by half.

For assay [1], the target named is DNA (cytosine-5)-methyltransferase 1 (Homo sapiens, UniProt P26358). Description: inhibition of DNA methylation by DNMT1 – biochemical, fluorescent molecular beacon, confirmation (AID 602386). The class given is functional.
DNA (cytosine-5)-methyltransferase 1, sequence (P26358 whole entry): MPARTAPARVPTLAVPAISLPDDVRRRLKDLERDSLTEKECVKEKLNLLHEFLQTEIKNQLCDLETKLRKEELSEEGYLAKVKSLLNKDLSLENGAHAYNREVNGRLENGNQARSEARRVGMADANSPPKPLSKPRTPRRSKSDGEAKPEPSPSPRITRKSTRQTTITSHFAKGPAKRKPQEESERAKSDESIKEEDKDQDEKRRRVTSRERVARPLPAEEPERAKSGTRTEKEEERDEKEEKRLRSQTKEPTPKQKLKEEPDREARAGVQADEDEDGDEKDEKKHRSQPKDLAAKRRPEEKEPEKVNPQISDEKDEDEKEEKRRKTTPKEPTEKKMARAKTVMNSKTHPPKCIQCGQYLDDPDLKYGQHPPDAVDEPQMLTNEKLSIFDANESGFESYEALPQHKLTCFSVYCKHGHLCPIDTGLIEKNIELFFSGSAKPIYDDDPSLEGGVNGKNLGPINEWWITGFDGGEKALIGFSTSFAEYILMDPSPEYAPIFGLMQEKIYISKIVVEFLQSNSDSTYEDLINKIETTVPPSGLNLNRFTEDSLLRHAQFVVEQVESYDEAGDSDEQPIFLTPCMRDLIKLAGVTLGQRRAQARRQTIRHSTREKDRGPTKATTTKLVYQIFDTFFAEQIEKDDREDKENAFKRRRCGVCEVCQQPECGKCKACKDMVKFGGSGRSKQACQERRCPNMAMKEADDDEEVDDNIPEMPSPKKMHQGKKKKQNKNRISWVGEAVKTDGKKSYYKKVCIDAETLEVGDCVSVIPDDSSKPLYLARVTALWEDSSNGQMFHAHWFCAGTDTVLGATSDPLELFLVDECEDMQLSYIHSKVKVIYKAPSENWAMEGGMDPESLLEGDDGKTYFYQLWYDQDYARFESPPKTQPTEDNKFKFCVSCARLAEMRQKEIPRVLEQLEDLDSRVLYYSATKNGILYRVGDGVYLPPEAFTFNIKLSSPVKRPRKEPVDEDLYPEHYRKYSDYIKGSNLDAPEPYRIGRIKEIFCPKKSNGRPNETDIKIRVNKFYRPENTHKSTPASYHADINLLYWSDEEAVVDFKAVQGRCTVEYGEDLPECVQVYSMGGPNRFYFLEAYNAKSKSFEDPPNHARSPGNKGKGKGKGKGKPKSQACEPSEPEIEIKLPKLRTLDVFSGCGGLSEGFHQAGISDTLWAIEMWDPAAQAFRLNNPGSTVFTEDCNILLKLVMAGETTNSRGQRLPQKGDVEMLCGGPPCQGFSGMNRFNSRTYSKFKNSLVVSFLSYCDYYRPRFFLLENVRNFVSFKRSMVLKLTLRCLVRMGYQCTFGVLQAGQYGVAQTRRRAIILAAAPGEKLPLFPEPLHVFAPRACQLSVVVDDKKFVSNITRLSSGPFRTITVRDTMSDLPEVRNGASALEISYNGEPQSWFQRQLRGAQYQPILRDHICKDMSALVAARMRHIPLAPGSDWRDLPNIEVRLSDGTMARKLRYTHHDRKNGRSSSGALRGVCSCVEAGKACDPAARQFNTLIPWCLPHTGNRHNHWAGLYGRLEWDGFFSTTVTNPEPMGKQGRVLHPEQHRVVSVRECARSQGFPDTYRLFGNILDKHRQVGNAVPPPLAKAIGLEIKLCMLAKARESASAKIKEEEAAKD
The subject of a further assay is Streptococcus. Briefly: GAS UMAA2166 growth inhibition – luminescence, BacTiterGlo, counter-screen for streptokinase expression inhibitor project, dose response (AID 1915).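 Further: potency for reduction of bacterial viability or growth.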 The class given is functional, organism-based. (In general: A counterscreen serves to expose hits that act by an unwanted route or on another target.)
A further assay concerns the target Beta-galactosidase (Escherichia coli, UniProt Q8VNN2). Description: detection-enzyme interference by beta-gal modulators – biochemical, E. coli enzyme, set 3, artefact control for CCR6 antagonist project, dose response (AID 504712). Type of assay: functional.
Assay [2] concerns Streptococcus sp. 'group A'. Description: Streptococcus pyogenes SK(-)GAS viability under kanamycin – luminescence, BacTiterGlo, confirmation, counter-screen for streptokinase expression inhibitor project, dose response (AID 1900). The class given is functional, organism-based.
Assay [3] deals with Induced myeloid leukemia cell differentiation protein Mcl-1 (Homo sapiens, UniProt Q07820). Type of assay: functional.
Induced myeloid leukemia cell differentiation protein Mcl-1, sequence (Q07820 whole entry): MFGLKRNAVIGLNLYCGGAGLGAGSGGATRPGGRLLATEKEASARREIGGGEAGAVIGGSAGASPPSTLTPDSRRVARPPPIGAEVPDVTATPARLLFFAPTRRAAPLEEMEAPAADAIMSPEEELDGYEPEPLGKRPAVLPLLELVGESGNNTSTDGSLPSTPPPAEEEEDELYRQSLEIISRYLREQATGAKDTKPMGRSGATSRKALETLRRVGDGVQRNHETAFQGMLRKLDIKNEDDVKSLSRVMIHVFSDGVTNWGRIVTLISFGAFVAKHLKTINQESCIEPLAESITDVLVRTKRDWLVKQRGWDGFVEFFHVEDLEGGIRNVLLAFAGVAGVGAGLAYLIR
In the next assay the target is Genome polyprotein (Hepatitis C virus, UniProt Q2Q167). Briefly: disruption of hepatitis C core self-association – biochemical, TR-FRET, dose response (AID 2159).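 Further: blocks dimerization of HCV core protein measured by TR-FRET between tagged core106 pairs.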 Set-up: species or system Hepacivirus hominis. Background: TR-FRET usually uses a lanthanide donor and a delayed reading to cut background.
Genome polyprotein, sequence (Q2Q167 whole entry): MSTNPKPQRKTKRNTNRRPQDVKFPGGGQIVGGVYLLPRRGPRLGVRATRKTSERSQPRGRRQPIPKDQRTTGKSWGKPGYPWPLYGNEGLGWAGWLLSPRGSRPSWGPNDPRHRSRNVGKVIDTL
A further assay addresses T1, Cysteine protease ATG4B (Homo sapiens, UniProt Q9Y4P1).
T1 sequence (Q9Y4P1 whole entry): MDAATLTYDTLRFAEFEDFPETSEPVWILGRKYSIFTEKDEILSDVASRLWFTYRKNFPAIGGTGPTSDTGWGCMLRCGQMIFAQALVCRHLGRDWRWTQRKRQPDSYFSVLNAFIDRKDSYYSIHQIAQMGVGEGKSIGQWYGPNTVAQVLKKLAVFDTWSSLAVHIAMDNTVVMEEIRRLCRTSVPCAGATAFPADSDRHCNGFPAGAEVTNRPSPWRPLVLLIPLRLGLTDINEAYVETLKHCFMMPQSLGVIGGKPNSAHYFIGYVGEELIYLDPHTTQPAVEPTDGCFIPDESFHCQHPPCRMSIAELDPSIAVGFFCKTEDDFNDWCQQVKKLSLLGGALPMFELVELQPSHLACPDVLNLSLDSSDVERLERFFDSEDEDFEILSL
Type of assay: functional.

Another assay concerns the target T2, Bcl-2-like protein 10 (Homo sapiens, UniProt Q9HD36).
T2 sequence (Q9HD36 whole entry): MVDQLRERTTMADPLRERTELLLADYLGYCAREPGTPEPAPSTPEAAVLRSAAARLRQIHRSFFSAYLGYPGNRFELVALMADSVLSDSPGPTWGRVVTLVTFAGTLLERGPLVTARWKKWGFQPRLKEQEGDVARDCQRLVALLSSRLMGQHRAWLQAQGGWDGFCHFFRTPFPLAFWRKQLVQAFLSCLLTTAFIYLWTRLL
Briefly: Bcl-B/TR3 peptide binding disruption – biochemical, fluorescence polarization, FITC-TR3 peptide, selectivity assay for Bfl-1 inhibitor project, primary screen (AID 748).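 Further: fluorescence polarization from a fluorescein-labelled TR3 peptide binding purified Bcl-B.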

In the next assay the target is Phospholipase A2 (Homo sapiens, UniProt P04054). Type of assay: functional.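 Further: confirmatory dose-response counterscreen on phospholipase A2, testing hits that came from an ultra-high-throughput screen for ATG4B inhibitors.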
Phospholipase A2, sequence (P04054 whole entry): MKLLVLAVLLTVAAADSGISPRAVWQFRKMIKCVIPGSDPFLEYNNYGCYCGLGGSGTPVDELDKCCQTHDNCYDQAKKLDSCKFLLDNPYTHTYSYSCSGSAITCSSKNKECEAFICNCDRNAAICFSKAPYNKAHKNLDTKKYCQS
The nature of assay [4]: Orthopox viral replication plaque formation Measured in Cell-Based and Microorganism Combination System Using Imaging - 2142-05_Inhibitor_Dose_DryPowder_Activity. Type of assay: functional.
Assay [5] is described as follows: lung carcinoma cell viability loss – CellTiter-Glo luminescence, dry powder, set 17, dose response (AID 1117284). The class given is functional, cell-based. Particulars: A549. For orientation: In ATP-based viability assays light output follows the ATP content of the culture.
A short description of assay [6]: inhibitors of orthopox intermediate gene expression, dose response, cell-based, single fluorophore reporter, dry powder (AID 1117271). Type of assay: functional.
A short description of assay [7]: Single fluorophore orthopox expression reporter, late gene expression Measured in Cell-Based and Microorganism Combination System Using Plate Reader - 2142-08_Inhibitor_Dose_DryPowder_Activity. Type of assay: functional.
Assay [8] in a line: inhibitors of non-replicating M. tuberculosis, dose response, luciferase, dry powder (AID 651619). The class given is functional. Particulars: Mycobacterium tuberculosis.
A short description of assay [9]: HepG2 hepatoma cell viability loss – plate reader, dry powder, cytotoxicity control, dose response (AID 651947). The class given is functional, cell-based.
The nature of assay [10]: HeLa cell viability loss – plate reader, dry powder, cytotoxicity control, dose response (AID 651946). Type of assay: functional, cell-based.
A short description of assay [11]: inhibitors of non-replicating M. tuberculosis, dose response, luciferase, dry powder (AID 651620). Type of assay: functional. Particulars: Mycobacterium tuberculosis.
The target in the next assay is Transthyretin (Homo sapiens, UniProt P02766). Description: Luminescence-based cell-based high throughput dose response assay to identify activators of Transthyretin (TTR) transcription. The class given is functional.
Assay [12] in a line: Luminescence Cell-Based Dose Confirmation HTS to Identify Activators of 5'UTR Stem-Loop Driven Alpha-Synuclein mRNA Translation in H4 Neuroglioblastoma Cells. [Related pubchem assays: 1829 (Project Summary), 1814 (Primary HTS)]. Type of assay: functional.
A short description of assay [13]: Luminescence Cell-Based Dose Response HTS to Identify Activators of Luciferase Translation or Activity in H4 […] Cells. [Related pubchem assays: 1829 (Project Summary), 1814 (Primary HTS)]. The class given is functional.
In a further assay the test system is H4. Briefly: Luminescence Cell-Based Dose Response HTS to Identify Activators of 5'UTR Stem-Loop Driven Prion Protein mRNA Translation in H4 Neuroglioblastoma Cells. [Related pubchem assays: 1829 (Project Summary), 1814 (Primary HTS)]. The class given is functional. Particulars: Homo sapiens.
The nature of assay [14]: Potency on glucagon-like peptide 1 release, dose-response in NCI-H716 cell line, half maximal inhibitory concentration (AID 1117344). Type of assay: functional, cell-based.
The nature of assay [15]: glucagon-like peptide-1 release potency in STC-1, concentration-response, half-maximal inhibitory concentration in the STC-1 line (AID 1117345). Type of assay: functional, cell-based.
Another assay deals with Prothrombin (Homo sapiens, UniProt P00734). Briefly: Thrombin 1536 HTS Dose Response Confirmation. [Related pubchem assays: 1046 (Thrombin 1536 HTS; hits were confirmed in this assay)]. The class given is functional.
Assay [16] has as its target Complement C1s subcomponent (Homo sapiens, UniProt P09871). Description: Complement C1s ELISA. [Related pubchem assays: 538, 787 ]. The class given is functional.
For assay [17], the system named is Vero. Briefly: cells. The class given is functional, cell-based. Particulars: Chlorocebus sabaeus.
The subject of assay [18] is Vero. Briefly: inhibition of WNV-induced cytopathic effect – cell-based, CPE readout (AID 1621). Type of assay: functional. Particulars: Chlorocebus sabaeus.
Assay [19] has as its system Vero. Briefly: cells. Type of assay: functional. Particulars: Chlorocebus sabaeus.
Assay [20] is described as follows: HIV-1 Vif–A3G interaction blockers – biochemical, TR-FRET, GST-Vif 1-94, biotin-A3G peptide, dose response retest, primary screen (AID 1117319).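 Further: TR-FRET signal of purified GST-Vif binding a biotinylated A3G peptide; inhibitors lower the FRET signal by blocking Vif and A3G binding.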 Type of assay: functional.

Calls of active or inactive are those of the source.

Beta-galactosidase, sequence (Q8VNN2 whole entry): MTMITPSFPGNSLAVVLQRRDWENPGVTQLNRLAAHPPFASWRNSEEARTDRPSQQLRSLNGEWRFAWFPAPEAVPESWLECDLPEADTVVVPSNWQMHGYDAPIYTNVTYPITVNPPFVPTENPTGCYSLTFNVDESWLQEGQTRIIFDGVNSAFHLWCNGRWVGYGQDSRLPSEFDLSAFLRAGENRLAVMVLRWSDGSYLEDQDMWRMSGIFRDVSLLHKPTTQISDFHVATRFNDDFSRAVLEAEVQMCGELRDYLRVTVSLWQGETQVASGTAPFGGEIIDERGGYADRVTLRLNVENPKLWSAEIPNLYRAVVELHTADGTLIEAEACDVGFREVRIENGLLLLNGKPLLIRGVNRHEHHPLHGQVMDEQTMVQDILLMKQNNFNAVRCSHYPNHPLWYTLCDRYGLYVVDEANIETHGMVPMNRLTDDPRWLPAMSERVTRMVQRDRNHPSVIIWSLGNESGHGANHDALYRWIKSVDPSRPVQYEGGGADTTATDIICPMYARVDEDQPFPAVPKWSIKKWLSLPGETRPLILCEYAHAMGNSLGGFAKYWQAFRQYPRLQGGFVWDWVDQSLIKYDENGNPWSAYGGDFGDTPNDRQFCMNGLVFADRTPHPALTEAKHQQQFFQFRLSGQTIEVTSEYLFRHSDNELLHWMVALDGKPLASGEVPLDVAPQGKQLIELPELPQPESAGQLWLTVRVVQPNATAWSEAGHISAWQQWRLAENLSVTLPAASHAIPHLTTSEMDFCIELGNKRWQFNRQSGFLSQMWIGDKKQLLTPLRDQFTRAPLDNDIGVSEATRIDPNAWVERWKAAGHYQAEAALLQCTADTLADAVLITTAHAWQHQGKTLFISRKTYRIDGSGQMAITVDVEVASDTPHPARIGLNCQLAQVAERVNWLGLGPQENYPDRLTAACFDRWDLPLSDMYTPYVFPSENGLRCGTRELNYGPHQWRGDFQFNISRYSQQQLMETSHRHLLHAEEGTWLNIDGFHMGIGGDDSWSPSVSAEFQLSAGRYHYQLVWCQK
Complement C1s subcomponent, sequence (P09871 16-437 limits assumed): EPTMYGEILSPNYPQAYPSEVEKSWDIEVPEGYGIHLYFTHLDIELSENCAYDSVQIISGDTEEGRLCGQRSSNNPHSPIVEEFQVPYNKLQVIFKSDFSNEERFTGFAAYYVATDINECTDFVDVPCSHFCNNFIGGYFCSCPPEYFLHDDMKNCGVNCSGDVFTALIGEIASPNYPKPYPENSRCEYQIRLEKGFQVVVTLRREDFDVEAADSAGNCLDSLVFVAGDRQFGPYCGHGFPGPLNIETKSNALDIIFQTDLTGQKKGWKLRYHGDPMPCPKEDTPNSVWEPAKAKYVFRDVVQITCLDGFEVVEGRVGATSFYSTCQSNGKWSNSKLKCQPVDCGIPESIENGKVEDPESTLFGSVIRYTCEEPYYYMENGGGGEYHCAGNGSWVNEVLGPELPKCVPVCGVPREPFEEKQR
Complement C1s subcomponent, sequence (P09871 438-688 limits assumed): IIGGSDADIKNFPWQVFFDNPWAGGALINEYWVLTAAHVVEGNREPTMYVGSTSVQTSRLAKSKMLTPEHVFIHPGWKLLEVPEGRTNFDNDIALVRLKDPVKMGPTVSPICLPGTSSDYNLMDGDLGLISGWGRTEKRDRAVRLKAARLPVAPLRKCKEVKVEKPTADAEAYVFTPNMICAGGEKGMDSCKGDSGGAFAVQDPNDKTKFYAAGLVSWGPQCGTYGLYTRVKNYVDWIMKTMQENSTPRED

Turning to `CCOc1cc(/C=C2\C(=O)N(c3nc(-c4ccc(Br)cc4)cs3)N=C2c2ccccc2)ccc1O`, the IC50 in assay [1] was 4.35 µM (active); on Beta-galactosidase, > 66.6 µM (inactive); in assay [3], 2.54 µM (active); against Genome polyprotein, > 49.8 µM (not active); at Cysteine protease ATG4B, 5.08 µM (active); at Bcl-2-like protein 10, 43.8 µM (active). Moreover, the IC50 at Phospholipase A2 is 6.97 µM (active). For the same molecule, the results for the EC50 (with Streptococcus; in [2]) were 3.67 µM (active) and 1.78 µM (active), respectively.
For `Cc1ccc(-c2ccc(CN(C)C[C@@H]3Oc4cc(C#C[C@@H](C)O)ccc4S(=O)(=O)N([C@@H](C)CO)C[C@@H]3C)cc2)cc1`, the AC50 in [4] was 1.76 µM (active); in assay [5], > 52 µM (inactive); in assay [6], 1.95 µM (active); in assay [7] it was 1.13 µM (active).
`c1ccc(Sc2nnc(-c3ccccc3)o2)cc1`: the IC90 in [8] and in [11] was 1 µM (active) throughout. The figures for the AC50 in assay [9] and in assay [10] were 42.9 µM (active) and > 52 µM (inactive), respectively.
On to `Cc1c(Br)c(C(=O)N2CCc3ccccc32)nn1C`, for which the EC50 at Transthyretin was > 167 µM (inactive); in [12], 11.7 µM (active); in assay [13] it was 6.16 µM (active); with H4 it was 99.2 µM (active).
`Oc1cccc2cccnc12`: the IC50 was > 40 µM (inactive) in assay [14] and > 20 µM (inactive) in assay [15].
With `COc1ccc(-c2nc(SC)n(C(=O)c3ccco3)n2)cc1`, the figures for the half-maximal inhibitory concentration (IC50) (on Prothrombin; in assay [16]) were 1.14 µM (active) and > 50 µM (not active), respectively.
With `Cc1ccc(S(=O)(=O)N(C)C)cc1NC(=O)c1cncc(Br)c1`, the IC50 in the assay with Vero [17] is > 25 µM (active); in the assay with Vero [18], 32 µM (active). Also, the CC50 in the assay with Vero [19] is > 25 µM (active).
As for `COc1cccc(-c2cc(C(=O)Nc3cnn(Cc4ccccc4C)c3)no2)c1`, the IC50 in [20] was > 100 µM (active).

For the origin of these results see ChEMBL document CHEMBL1201862, “PubChem BioAssay data set” (2004).
